One may read the melting point as the temperature of the solid-liquid transition.

Data on 71 compounds can be found in US9266834B2, “1, 4-disubstituted 3-cyano-pyridone derivatives and their use as positive allosteric modulators of MGLUR2-receptors” (JANSSEN PHARMACEUTICALS, INC., priority 2006, dated 2016).

One data set addresses T1, human mGluR2 receptor (Homo sapiens, UniProt Q14416).
T1 construct: expressed in transfected cells; host or cells: CHO cells (membrane preparation)
Description: [35S]GTPγS binding assay (GTPγS-PAM): positive allosteric modulation in presence of glutamate at EC25, membranes from transfected CHO cells. Conditions: in presence of mGluR2 agonist glutamate at predetermined EC25 concentration, averages of duplicate values of 11-concentration response curves, read-out: GTPgS - hR2 PAM pEC50 (converted). Format: biochemical. In outline:
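Membranes came from butyrate-stimulated CHO cells expressing human mGluR2, used at 15 μg/well in HEPES pH 7.4 with 100 mM NaCl, 3 mM MgCl2, 50 μM GDP and saponin. Compound (0.3 nM-50 μM, 11 concentrations) plus glutamate at EC25 was preincubated 30 min at 30° C., then 0.1 nM [35S]GTPγS was added for 30 min. Filter-bound radioactivity was counted, nonspecific binding was taken with 10 μM GTP, and curves were fitted by four-parameter logistic.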
In general terms: GTPγS resists hydrolysis and so accumulates on activated G proteins.

T1 sequence (Q14416 19-872): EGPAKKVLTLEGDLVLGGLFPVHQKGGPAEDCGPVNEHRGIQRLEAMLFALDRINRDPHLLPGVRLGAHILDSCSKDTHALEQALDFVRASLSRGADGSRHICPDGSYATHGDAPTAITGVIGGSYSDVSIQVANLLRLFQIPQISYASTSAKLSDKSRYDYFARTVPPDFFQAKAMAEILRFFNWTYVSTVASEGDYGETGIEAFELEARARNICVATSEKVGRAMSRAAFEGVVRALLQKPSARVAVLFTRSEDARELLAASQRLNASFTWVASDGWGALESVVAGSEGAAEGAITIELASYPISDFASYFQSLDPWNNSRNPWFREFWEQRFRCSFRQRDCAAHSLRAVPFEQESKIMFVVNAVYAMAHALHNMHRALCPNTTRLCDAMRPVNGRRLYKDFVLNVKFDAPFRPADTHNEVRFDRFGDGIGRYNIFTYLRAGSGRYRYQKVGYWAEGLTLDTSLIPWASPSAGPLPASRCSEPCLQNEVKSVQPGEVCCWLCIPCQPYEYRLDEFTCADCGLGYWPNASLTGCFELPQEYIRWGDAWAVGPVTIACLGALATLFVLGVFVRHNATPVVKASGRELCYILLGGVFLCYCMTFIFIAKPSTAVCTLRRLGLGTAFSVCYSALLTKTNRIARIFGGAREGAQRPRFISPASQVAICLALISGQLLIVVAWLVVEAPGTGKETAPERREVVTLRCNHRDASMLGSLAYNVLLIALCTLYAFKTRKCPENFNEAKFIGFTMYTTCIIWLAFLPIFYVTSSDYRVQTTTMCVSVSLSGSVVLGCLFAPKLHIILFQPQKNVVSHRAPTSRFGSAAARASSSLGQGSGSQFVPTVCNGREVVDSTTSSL

In turn, `N#Cc1c(-c2ccc(OC(F)(F)F)cc2)ccn(CC2CCCC2)c1=O` [1-007] displayed a melting point of 159 °C. For the same compound, the EC50 on human mGluR2 receptor was 398 nM.

For the compound `N#Cc1c(-c2cccs2)ccn(CC2CCCCC2)c1=O` [1-008], the melting point worked out at 148 °C. For the same compound, the EC50 on human mGluR2 receptor was 251 nM.

The compound `N#Cc1c(-c2ccccc2)ccn(CC2CCCCC2)c1=O` [1-009] yielded a melting point of 149 °C. The EC50 on human mGluR2 receptor was 1580 nM.

As to `COc1ccccc1-c1ccn(CC2CCCCC2)c(=O)c1C#N` [1-011], the melting point is 60 °C. Further, the EC50 at human mGluR2 receptor was 2000 nM.

In the case of `COc1ccc(-c2ccn(CC3CCC(C)CC3)c(=O)c2C#N)cc1` (stereo not shown) [1-013], the melting point came to 128 °C. On human mGluR2 receptor, the EC50 was 126 nM.

Compound `CC1CCC(Cn2ccc(-c3ccc(OC(F)(F)F)cc3)c(C#N)c2=O)CC1` (stereo not shown) [1-014] returned a melting point of 143 °C. Further, the EC50 at human mGluR2 receptor is 100 nM.

Compound `Cc1ccc(Cn2ccc(-c3ccco3)c(C#N)c2=O)cc1` [1-018] had a melting point of 155 °C. Besides, the EC50 on human mGluR2 receptor was 2510 nM.

For `Cc1ccc(Cn2ccc(-c3cccs3)c(C#N)c2=O)cc1` [1-019], the melting point was found to be 118 °C. Further, the EC50 on human mGluR2 receptor was 794 nM.

Compound `COc1ccc(-c2ccn(Cc3ccc(C(F)(F)F)cc3)c(=O)c2C#N)cc1` [1-024] had a melting point of 181 °C. Moreover, the EC50 at human mGluR2 receptor is 126 nM.

As to `N#Cc1c(-c2ccccc2)ccn(Cc2cccc(OC(F)(F)F)c2)c1=O` [1-030], the melting point turned out to be 153 °C. Moreover, on human mGluR2 receptor, the EC50 was 316 nM.

Compound `N#Cc1c(-c2ccc(CN3CCCCC3)cc2)ccn(Cc2ccc(OC(F)(F)F)cc2)c1=O` [1-031] had a melting point of 167 °C. On human mGluR2 receptor, the EC50 is 2510 nM.

For `N#Cc1c(-c2ccc(N3CCOCC3)cc2)ccn(Cc2ccc(OC(F)(F)F)cc2)c1=O` [1-032], the melting point was 190 °C. For the same compound, the EC50 at human mGluR2 receptor was 794 nM.

As to `N#Cc1c(-c2ccc(CN3CCOCC3)cc2)ccn(Cc2ccc(OC(F)(F)F)cc2)c1=O` [1-033], the melting point came out at 97 °C. Moreover, the EC50 on human mGluR2 receptor is 2510 nM.

The compound `C[C@@H]1CN(Cc2ccc(-c3ccn(Cc4ccc(OC(F)(F)F)cc4)c(=O)c3C#N)cc2)C[C@H](C)O1` [1-035] had a melting point of 136 °C. In addition, at human mGluR2 receptor, the EC50 is 794 nM.

`N#Cc1c(-c2ccc(OCCN3CCOCC3)cc2)ccn(Cc2ccc(OC(F)(F)F)cc2)c1=O` [1-037] had a melting point of 184 °C. Further, on human mGluR2 receptor, the EC50 was 2000 nM.

For `N#Cc1c(-c2ccc(OCCCN3CCOCC3)cc2)ccn(Cc2ccc(OC(F)(F)F)cc2)c1=O` [1-038], the melting point came to 140 °C. Also, the EC50 on human mGluR2 receptor was 794 nM.

In the case of `COc1ccc(-c2ccn(Cc3ccc(OC(F)(F)F)cc3)c(=O)c2C#N)cc1` [1-039], the melting point is 169 °C. Besides, the EC50 on human mGluR2 receptor was 158 nM.

The compound `N#Cc1c(-c2ccc(CCCO)cc2)ccn(Cc2ccc(OC(F)(F)F)cc2)c1=O` [1-040] had a melting point of 180 °C. Also, on human mGluR2 receptor, the EC50 is 200 nM.

In turn, `N#Cc1c(-c2ccc(Oc3ccccc3)cc2)ccn(Cc2ccc(OC(F)(F)F)cc2)c1=O` [1-041] showed a melting point of 155 °C. Moreover, the EC50 on human mGluR2 receptor is 251 nM.

In turn, `N#Cc1c(-c2ccccc2)ccn(Cc2ccc(-c3ccccc3)cc2)c1=O` [1-042] displayed a melting point of 185 °C. Further, on human mGluR2 receptor, the EC50 is 158 nM.

Turning to `CCCn1ccc(-c2cccs2)c(C#N)c1=O` [1-050], the melting point worked out at 135 °C.

As to `CC(C)CCn1ccc(-c2ccccc2)c(C#N)c1=O` [1-084], the melting point was determined as 142 °C.

Compound `CC(C)CCn1ccc(-c2ccc(CO)cc2)c(C#N)c1=O` [1-098] showed a melting point of 145 °C.

Compound `CNC(=O)COc1ccc(-c2ccn(CCC(C)C)c(=O)c2C#N)cc1` [1-127] had a melting point of 156 °C.

`CC(=O)NCc1cccc(-c2ccn(CCC(C)C)c(=O)c2C#N)c1` [1-178]: the melting point was 157 °C.

With `CC(C)CCn1ccc(-c2ccc(C(=O)NCc3ccncc3)cc2)c(C#N)c1=O` [1-213], the melting point worked out at 96 °C.

For the compound `CC(C)CCn1ccc(-c2ccc(CN3CCOCC3)cc2)c(C#N)c1=O` [1-229], the melting point came to 148 °C.

On to `CC(C)CCn1ccc(-c2ccc(-n3ccnc3)cc2)c(C#N)c1=O` [1-235], for which the melting point stood at 151 °C.

Compound `CC(C)CCn1ccc(-c2ccc(CCC(=O)O)cc2)c(C#N)c1=O` [1-240] came in with a melting point of 169 °C.

In turn, `CC(C)CCn1ccc(OCCOCc2ccccc2)c(C#N)c1=O` [1-281] yielded a melting point of 83 °C.

With `CC(C)CCn1ccc(OCCN2CCN(c3ccccn3)CC2)c(C#N)c1=O` [2-036], the melting point is 159 °C.

As to `CC(C)CCn1ccc(N2CCC(CN(C)Cc3ccc(F)cc3)CC2)c(C#N)c1=O` [4-030], at human mGluR2 receptor, the EC50 is 1260 nM.

In the case of `CC(C)CCn1ccc(N2CCC(N(C)CCc3cccc(C(F)(F)F)c3)CC2)c(C#N)c1=O` [4-032], the EC50 at human mGluR2 receptor was 398 nM.

On to `CC(C)CCn1ccc(N2CCC(n3ccc4ccccc43)CC2)c(C#N)c1=O` [4-035], for which the EC50 on human mGluR2 receptor is 100 nM.

As to `CC(C)CCn1ccc(N2CCC(c3noc(-c4ccccc4)n3)CC2)c(C#N)c1=O` [4-041], the EC50 at human mGluR2 receptor is 126 nM.

In the case of `CC(C)CCn1ccc(N2CCC(c3ccccc3)(N3CCOCC3)CC2)c(C#N)c1=O` [4-044], at human mGluR2 receptor, the EC50 is 2510 nM.

Consider `COC1(c2ccccc2)CCN(c2ccn(CCC(C)C)c(=O)c2C#N)CC1` [4-045], for which the EC50 on human mGluR2 receptor was 126 nM.

Turning to `N#Cc1c(N2CCC(c3ccccc3)CC2)ccn(CC2CC2)c1=O` [4-047, 3-cyano-1-cyclopropylmethyl-4-(4-phenyl-piperidin-1-yl)-pyridine-2(1H)-one], the melting point is 128 °C.

For the compound `N#Cc1c(N2CCC(c3ccccc3)CC2)ccn(CC2CCCCO2)c1=O` (stereo not shown) [4-048], the EC50 at human mGluR2 receptor is 2000 nM.

As to `N#Cc1c(N2CCC(N3CCc4ccccc4C3)CC2)ccn(Cc2ccc(OC(F)(F)F)cc2)c1=O` [4-051], the EC50 at human mGluR2 receptor is 501 nM.

`Cc1cc(OCC2CCN(c3ccn(Cc4ccc(OC(F)(F)F)cc4)c(=O)c3C#N)CC2)ccn1` [4-052]: the EC50 on human mGluR2 receptor was 631 nM.

For `Cc1ccc(C2(O)CCN(c3ccn(Cc4ccc(OC(F)(F)F)cc4)c(=O)c3C#N)CC2)cn1` [4-053], the EC50 at human mGluR2 receptor is 3160 nM.

`CN(Cc1ccccc1)C1CCN(c2ccn(Cc3ccc(F)cc3)c(=O)c2C#N)CC1` [4-056]: at human mGluR2 receptor, the EC50 was 5010 nM.

In the case of `CN(Cc1cccc(C(F)(F)F)c1)C1CCN(c2ccn(Cc3ccc(F)cc3)c(=O)c2C#N)CC1` [4-058], on human mGluR2 receptor, the EC50 was 251 nM.

`N#Cc1c(N2CCC(O)(c3cccnc3)CC2)ccn(Cc2ccc(OC(F)(F)F)cc2)c1=O` [4-063]: the EC50 on human mGluR2 receptor was 5010 nM.

`CN(Cc1cccc(C(F)(F)F)c1)C1CCN(c2ccn(CCOc3ccccc3)c(=O)c2C#N)CC1` [4-065]: the EC50 at human mGluR2 receptor was 31.6 nM.

On to `N#Cc1c(N2CCC(c3ccccc3)CC2)ccn(CCOc2ccccc2)c1=O` [4-066], for which the EC50 at human mGluR2 receptor is 31.6 nM.

For `CC(C)CCn1ccc(N2CCc3ccccc3C2)c(C#N)c1=O` [5-003], on human mGluR2 receptor, the EC50 was 251 nM.

With `CC(C)CCn1ccc(N2C[C@@H]3C[C@H]2CN3Cc2ccccc2)c(C#N)c1=O` [5-004], the EC50 on human mGluR2 receptor was 5010 nM.

As for `CC(C)CCn1ccc(C2CCN(Cc3ccccc3)C2)c(C#N)c1=O` (stereo not shown) [5-007], at human mGluR2 receptor, the EC50 was 1260 nM.

Take `CC(C)CCn1ccc(-c2ccc3c(c2)CCN3)c(C#N)c1=O` [5-014]: the EC50 at human mGluR2 receptor was 2000 nM.

`CC(=O)N1CCc2cc(-c3ccn(CCC(C)C)c(=O)c3C#N)ccc21` [5-015]: on human mGluR2 receptor, the EC50 was 1580 nM.

Turning to `CC(C)CCn1ccc(-c2ccc3[nH]ccc3c2)c(C#N)c1=O` [5-016], on human mGluR2 receptor, the EC50 is 251 nM.

Take `CC(C)CCn1ccc(-c2cccc3[nH]ccc23)c(C#N)c1=O` [5-017]: the EC50 on human mGluR2 receptor is 794 nM.

Regarding `CC(C)CCn1ccc(-c2ccc3c(ccn3-c3ccccc3)c2)c(C#N)c1=O` [5-019], the EC50 on human mGluR2 receptor is 50.1 nM.

Take `CC(C)CCn1ccc(-c2ccc3[nH]ncc3c2)c(C#N)c1=O` [5-021]: at human mGluR2 receptor, the EC50 was 1580 nM.

Consider `CCCCn1ccc(-c2ccc3c(cnn3Cc3ccccn3)c2)c(C#N)c1=O` [5-023], for which the EC50 at human mGluR2 receptor is 794 nM.

On to `CC(C)CCn1ccc(-c2ccc3c(cnn3Cc3ccncc3)c2)c(C#N)c1=O` [5-025], for which the EC50 at human mGluR2 receptor is 398 nM.

Consider `Cc1c(-c2ccn(CCC(C)C)c(=O)c2C#N)cnn1-c1ccccc1` [5-027], for which the EC50 at human mGluR2 receptor was 316 nM.

On to `Cc1nc(-c2ccccc2)sc1-c1ccn(CCC(C)C)c(=O)c1C#N` [5-028], for which, on human mGluR2 receptor, the EC50 was 316 nM.

In turn, `CC(C)CCn1ccc(-n2ncc3ccccc32)c(C#N)c1=O` [5-029] registered a melting point of 234 °C.

In the case of `CC(C)CCn1ccc(N2CCOc3ccccc32)c(C#N)c1=O` [5-030], at human mGluR2 receptor, the EC50 was 6310 nM.

On to `COc1cc2c(cc1OC)CN(c1ccn(CCC(C)C)c(=O)c1C#N)CC2` [5-032], for which, at human mGluR2 receptor, the EC50 was 1260 nM.

Turning to `CC(C)CCn1ccc(N2CCC3(CCc4ccccc43)CC2)c(C#N)c1=O` [5-033], the EC50 on human mGluR2 receptor was 39.8 nM.

On to `CC(C)CCn1ccc(N2CCC3(CCN(c4ncccn4)CC3)CC2)c(C#N)c1=O` [5-034], for which the EC50 at human mGluR2 receptor is 398 nM.

In the case of `CC(C)CCn1ccc(N2CCC3(CC2)COc2ccccc2O3)c(C#N)c1=O` [5-036], at human mGluR2 receptor, the EC50 is 251 nM.

In the case of `CC(C)CCn1ccc(N2CCc3c(sc4ccc(Cl)cc34)C2)c(C#N)c1=O` [5-042], at human mGluR2 receptor, the EC50 was 200 nM.

On to `CC(C)CCn1ccc(N2CCCN(c3ccccc3)CC2)c(C#N)c1=O` [5-043], for which, on human mGluR2 receptor, the EC50 was 1000 nM.

`COc1ccccc1N1CCCN(c2ccn(CCC(C)C)c(=O)c2C#N)CC1` [5-044]: the EC50 on human mGluR2 receptor was 1000 nM.

For the compound `Cc1onc(-c2ccccc2)c1COc1ccn(CCC(C)C)c(=O)c1C#N` [5-045], the EC50 on human mGluR2 receptor is 3980 nM.

Consider `N#Cc1c(C#Cc2ccncc2)ccn(CC2CCCCC2)c1=O` [5-049], for which the EC50 on human mGluR2 receptor is 1580 nM.
